Experimental data: US8445497B2, “Compounds for the treatment of hepatitis C” (Bristol-Myers Squibb Company, priority 2010, dated 2013)

How the values were obtained:
[1] = biological target: T1, HCV NS5B (Hepatitis C virus genotype 1b, UniProt Q9WMX2); assay: HCV NS5B RdRp enzyme assay; format: biochemical; conditions: HCV NS5B RdRp genotype 1b
T1 construct: The protein was expressed with an 18 amino acid C-terminal truncation to enhance the solubility; made in house; host or cells: E. coli BL21(DE3)
T1 sequence (Q9WMX2 2420-2992): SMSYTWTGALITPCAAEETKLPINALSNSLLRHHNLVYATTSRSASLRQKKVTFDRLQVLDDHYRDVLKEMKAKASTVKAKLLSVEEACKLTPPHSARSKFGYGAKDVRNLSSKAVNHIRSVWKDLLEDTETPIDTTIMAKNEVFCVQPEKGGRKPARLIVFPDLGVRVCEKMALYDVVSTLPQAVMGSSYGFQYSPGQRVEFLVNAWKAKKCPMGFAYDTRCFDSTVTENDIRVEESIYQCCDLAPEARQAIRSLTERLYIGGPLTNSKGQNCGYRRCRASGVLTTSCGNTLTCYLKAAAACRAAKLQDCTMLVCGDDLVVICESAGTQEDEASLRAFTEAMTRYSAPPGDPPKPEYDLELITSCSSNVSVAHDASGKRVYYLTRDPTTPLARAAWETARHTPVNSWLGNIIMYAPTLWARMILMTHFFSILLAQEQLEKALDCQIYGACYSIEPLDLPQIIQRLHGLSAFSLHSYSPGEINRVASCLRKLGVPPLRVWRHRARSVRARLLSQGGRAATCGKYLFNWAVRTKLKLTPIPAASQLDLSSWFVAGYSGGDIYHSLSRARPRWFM
Description: HCV NS5B RdRp cloning, expression, and purification. The cDNA encoding the NS5B protein of HCV, genotype 1b, was cloned into the pET21a expression vector. The protein was expressed with an 18 amino acid C-terminal truncation to enhance the solubility. The E. coli competent cell line BL21(DE3) was used for expression of the protein. Cultures were grown at 37° C. for ˜4 hours until the cultures reached an optical density of 2.0 at 600 nm. The cultures were cooled to 20° C. and induced with 1 mM IPTG. Fresh ampicillin was added to a final concentration of 50 μg/mL and the cells were grown overnight at 20° C.
Cell pellets (3 L) were lysed for purification to yield 15-24 mgs of purified NS5B. The lysis buffer consisted of 20 mM Tris-HCl, pH 7.4, 500 mM NaCl, 0.5% triton X-100, 1 mM DTT, 1 mM EDTA, 20% glycerol, 0.5 mg/ml lysozyme, 10 mM MgCl2, 15 ug/ml deoxyribonuclease I, and Complete TM protease inhibitor tablets (Roche). After addition of the lysis buffer, frozen cell pellets were resuspended using a tissue homogenizer. To reduce the viscosity of the sample, aliquots of the lysate were sonicated on ice using a microtip attached to a Branson sonicator. […]
Standard HCV NS5B RdRp enzyme assay. […] Plates were read on a Packard Top Count NXT after >1 hr incubation at room temperature. […]

[2] = system: genotype 1a or 1b HCV replicon in Huh-7 cells; assay: HCV replicon luciferase assay; format: cell-based; conditions: Hepatitis C virus, 72 h; Huh-7 HCV replicon, Renilla luciferase, 3 days; genotype 1a or 1b not stated
Description: Cell lines. The cell lines used to evaluate compounds consist of a human hepatocyte derived cell line (Huh-7) that constitutively expresses a genotype 1a or 1b HCV replicon containing a Renilla luciferase reporter gene. These cells were maintained in Dulbecco's modified Eagle medium (DMEM) containing 10% FBS, 100 U/mL penicillin/streptomycin and 1.0 mg/mL G418.
HCV replicon luciferase assay. To evaluate compound efficacy, HCV replicon cells were seeded in 96-well plates in DMEM containing 10% FBS at a cell density of 10^4/well. Following incubation at 37° C. overnight, compounds serially diluted in DMSO were added to the cell plates. Alternatively, titrated compounds were transferred to sterile 384-well tissue-culture treated plates and the plates seeded with 50 μL of cells at a density of 2.4×10^3 cells/well in DMEM containing 4% FCS (final DMSO concentration at 0.5%). After 3 days incubation at 37° C., cells were analyzed for Renilla Luciferase activity using the EnduRen substrate (Promega cat #E6485) according to the manufacturer's directions. Briefly, the EnduRen substrate was diluted in DMEM and then added to the plates to a final concentration of 7.5 μM. The plates were incubated for at least 1 h at 37° C. then read on a TopCount NXT Microplate Scintillation and Luminescence Counter (Packard) or Viewlux Imager (PerkinElmer) using a luminescence program. […]

[3] = system: HCV; conditions: single agent: transient decrease then rebound; more robust drop with interferon and ribavirin; cited from earlier work
[4] = extended dosing of the combination regimens with interferon and ribavirin; cited from earlier work
[5] = system: HCV; conditions: combination therapy, Poynard et al. 1998; cited from earlier work

Compound: CNC(=O)c1c(-c2ccc(Oc3ccc(F)cc3)cc2)oc2ccc(-c3cc(C(=O)NC4(c5ncccn5)CC4)c(OC)cc3C)c(F)c12 [4-Fluoro-2-(4-(4-fluorophenoxy)phenyl)-5-(4-methoxy-2-methyl-5-(1-(pyrimidin-2-yl)cyclopropylcarbamoyl)phenyl)-N-methylbenzofuran-3-carboxamide]
- IC50 [1]: 24 µM
- EC50 [2]: 5 µM

Compound: CNC(=O)c1c(-c2ccc(F)cc2)oc2cc(N(CCO)S(C)(=O)=O)c(C3CC3)cc12 [HCV-796]
- HCV RNA levels in patients [3]: showed an ability to reduce HCV RNA levels in patients
- hepatic toxicity [4]: hepatic toxicity observed

Compound: alpha-interferon and ribavirin
- sustained efficacy, share of patients [5]: 40%
